Source: patent US20220002359A1, “Voltage-Gated Calcium Channel Auxilliary Subunit Alpha 2 Delta and Uses Thereof” (Novassay, S.A., priority 2017, published 2022)
pIC50, pKd: −log10 of the molar value. Where two headings read alike, the source gives them in different places.

Columns and labels:
[1] = target: T1, α2δ-1 recombinant peptide (SEQ ID No. 5) containing the VGCC_α2 domain (Homo sapiens, UniProt P54289); assay: biochemical
Protocol: (§1) The equilibrium dissociation constant KD=kd/ka was calculated and provides a single concentration estimate of the compound target binding affinity.

[2] = target: T2, α2δ-1 recombinant peptide (SEQ ID No. 5) comprising the VGCC_α2 domain (Homo sapiens, UniProt P54289); assay: SPR binding to immobilized α2δ-1 recombinant peptide; details: RU400, subtracted from BSA reference; 0.5-2 mM
T2 construct: purchased CUSABIO CSB-YP004407HU; host or cells: yeast
T2 sequence (P54289 528-668): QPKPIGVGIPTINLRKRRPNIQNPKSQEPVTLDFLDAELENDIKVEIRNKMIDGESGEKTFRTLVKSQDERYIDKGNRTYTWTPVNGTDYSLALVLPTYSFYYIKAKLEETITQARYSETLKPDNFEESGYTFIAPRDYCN
Text: The α2δ-1 recombinant peptide comprising the VGGC_α2 domain and containing a single cysteine near the carboxy terminus, was immobilized on the surface of a Biacore CM5 optical sensor chip using the Biacore Thiol Coupling Kit following the covalent thiol coupling chemistry. This immobilization process provides a sterically more uniform attachment of the ligand molecules to the sensor chip surface than the randomized amine coupling procedure. Bovine serum albumin (BSA) was immobilized to the reference flow cell FC1 as intra-assay background binding control. Compound NVA1309 was injected as analyte at increasing concentrations and the binding reaction was monitored by generation of real time sensorgrams, presented as subtracted curves from the BSA reference (see […]).
Sensorgram running conditions were: • Compound stock solution: 50 mM, Dimethyl sulfoxide (DMSO) DMSO • Compound working dilution: 0.5-2 mM • Running buffer: HBS-P • Flow rate: 30 μl/min

[3] = target: T3, Peptide P3 (SEQ ID No. 6), carboxy terminal region of the VGGC_α2 domain of α2δ-1 (Homo sapiens, UniProt P54289); assay: SPR binding to immobilized synthetic peptide P3; details: RU400, subtracted from blank dextran reference; 0.5-2 mM
T3 construct: three glycines and a terminal cysteine (Peptide 3); made in house; host or cells: chemical synthesis
T3 sequence (P54289 with tags, fused parts or gaps limits assumed): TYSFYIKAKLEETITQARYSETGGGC
Text: A synthetic peptide was constructed, representing the carboxy terminal of the VGGC_α2 domain of α2δ-1, carboxy-terminally fused to a flexible spacer consisting of three glycines and a terminal cysteine (Peptide 3; SEQ ID No. 6):
This peptide was covalently coupled via the carboxy-terminal cysteine to the surface (FC2) of a Biacore CM5 optical sensor chip using the Biacore Thiol Coupling Kit following the Biacore thiol coupling procedure. This strategy allows for uniform surface presentation of the immobilized peptide molecules and provides freedom to adopt a steric conformation determined by the amino acid sequence of the peptide. Compound NVA1309 was injected as analyte at increasing concentrations and the binding reaction was monitored by generation of real time sensorgrams, presented as subtracted curves from the blank FC1 dextran reference surface (see FIG. 13A).
Sensorgram running conditions were: • Compound stock solution: 50 mM, Dimethyl sulfoxide (DMSO) DMSO • Compound working dilution: 0.5-2 mM • Running buffer: HBS-P (Biacore) • Flow rate: 30 μl/min

[4] = target: T4, truncated recombinant α2δ-1 protein, Construct 2 (SEQ ID No. 3) (Homo sapiens, UniProt P54289); assay: SPR binding of analyte to immobilized truncated α2δ-1 construct 2; details: RU400, subtracted from human IgG reference; NVA1309 at increasing concentrations, pregabalin at 500 μM
T4 construct: His tag; GST; made in house; host or cells: CHO cells (transient expression)
T4 sequence (P54289 with tags, fused parts or gaps): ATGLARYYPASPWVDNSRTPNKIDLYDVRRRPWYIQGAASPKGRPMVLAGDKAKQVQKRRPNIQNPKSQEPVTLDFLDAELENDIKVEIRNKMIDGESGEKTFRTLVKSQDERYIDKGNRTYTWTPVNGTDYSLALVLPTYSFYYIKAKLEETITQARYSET
Protocol: Binding experiments were carried out using Surface Plasmon Resonance (SPR) technology in a Biacore instrument. Recombinant construct 1 and construct 2 were immobilized on the surface of two different flow cells (FC2 and FC3, respectively) of a Biacore CM5 optical sensor chip by covalent amine coupling chemistry, using the Biacore amine coupling kit and following the Biacore amine coupling protocol. Human IgG was immobilized to the reference flow cell FC1 as intra-assay background binding control.

[5] = target: truncated recombinant α2δ-1 protein, Construct 1 (SEQ ID No. 2) (Homo sapiens, UniProt P54289); assay: SPR binding of analyte to immobilized truncated α2δ-1 construct 1; details: RU400, subtracted from human IgG reference; NVA1309 at increasing concentrations, pregabalin at 500 μM
Chain of truncated recombinant α2δ-1 protein, Construct 1 (SEQ ID No. 2) (P54289 with tags, fused parts or gaps): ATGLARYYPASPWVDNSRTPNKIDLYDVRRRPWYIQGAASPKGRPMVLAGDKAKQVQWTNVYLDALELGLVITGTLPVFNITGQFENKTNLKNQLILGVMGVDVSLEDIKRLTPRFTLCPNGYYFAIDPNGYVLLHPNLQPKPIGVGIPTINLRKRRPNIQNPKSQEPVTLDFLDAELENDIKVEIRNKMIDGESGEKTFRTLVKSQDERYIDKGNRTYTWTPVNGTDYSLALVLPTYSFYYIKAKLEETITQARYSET

[6] = target: Peptide 1 (P1; SEQ ID No. 4) comprising the gabapentin/pregabalin binding site of α2δ-1 (Homo sapiens, UniProt P54289); assay: SPR binding to immobilized synthetic peptide P1; details: RU400, subtracted from blank dextran reference
Chain of Peptide 1 (P1; SEQ ID No. 4) comprising the gabapentin/pregabalin binding site of α2δ-1 (P54289 with tags, fused parts or gaps limits assumed): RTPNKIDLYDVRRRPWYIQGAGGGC
Protocol: Thiol coupling allows for uniform surface presentation of the immobilized peptide molecules and provides freedom to adopt a steric conformation that is determined by the amino acid sequence of the peptide.
Sensorgram running conditions were: • Compound stock solution: 50 mM, DMSO • Compound working stock dilution: 0.5-2 mM • Running buffer: HBS-P • Flow rate: 30 μl/min

[7] = target: T1, α2δ-1 recombinant peptide (SEQ ID No. 5) containing the VGCC_α2 domain; details: Langmuir 1:1 fit, single concentration data
Protocol: as §1

[8] = target: human voltage-gated calcium channel subunit α2δ-1 (Homo sapiens, UniProt P54289)
Chain of human voltage-gated calcium channel subunit α2δ-1 (P54289 25-1103): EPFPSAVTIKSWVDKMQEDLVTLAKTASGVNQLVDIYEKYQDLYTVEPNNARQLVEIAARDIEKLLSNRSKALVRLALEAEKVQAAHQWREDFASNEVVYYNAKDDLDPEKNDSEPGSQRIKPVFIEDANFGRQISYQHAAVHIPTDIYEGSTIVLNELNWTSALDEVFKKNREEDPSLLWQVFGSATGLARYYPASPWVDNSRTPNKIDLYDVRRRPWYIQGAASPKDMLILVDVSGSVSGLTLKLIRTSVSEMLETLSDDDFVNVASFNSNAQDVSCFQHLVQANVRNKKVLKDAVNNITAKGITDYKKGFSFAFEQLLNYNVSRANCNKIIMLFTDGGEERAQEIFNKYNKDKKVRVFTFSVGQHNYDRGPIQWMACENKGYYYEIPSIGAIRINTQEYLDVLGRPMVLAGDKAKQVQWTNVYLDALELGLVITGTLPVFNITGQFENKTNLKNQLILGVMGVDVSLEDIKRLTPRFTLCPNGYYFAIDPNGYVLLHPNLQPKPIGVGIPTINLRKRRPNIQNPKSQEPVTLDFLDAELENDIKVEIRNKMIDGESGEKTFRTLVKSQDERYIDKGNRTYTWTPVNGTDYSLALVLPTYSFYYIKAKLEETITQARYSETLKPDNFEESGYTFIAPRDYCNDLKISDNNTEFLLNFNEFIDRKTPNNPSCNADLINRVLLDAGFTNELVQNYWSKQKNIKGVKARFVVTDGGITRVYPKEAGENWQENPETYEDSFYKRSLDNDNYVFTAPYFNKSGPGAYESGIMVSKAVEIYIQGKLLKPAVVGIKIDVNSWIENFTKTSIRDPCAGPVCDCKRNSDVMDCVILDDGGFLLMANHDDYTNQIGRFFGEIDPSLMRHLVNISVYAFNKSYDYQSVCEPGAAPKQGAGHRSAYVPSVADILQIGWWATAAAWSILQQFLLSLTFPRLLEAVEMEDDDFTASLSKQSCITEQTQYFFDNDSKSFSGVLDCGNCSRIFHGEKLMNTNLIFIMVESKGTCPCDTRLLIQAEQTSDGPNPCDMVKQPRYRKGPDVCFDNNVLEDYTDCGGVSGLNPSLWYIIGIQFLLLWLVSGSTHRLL

[9] = test system: α2δ-1; details: partial sciatic ligation neuropathy, α2δ-1−/− mice; cited from earlier work
[10] = target: T5, α2δ-1 (RRR mutated to RRA) (Mus musculus, UniProt O08532, R241A); details: knock-in mutant mouse; cited from earlier work
T5 construct: host or cells: knock-in mutant mouse (in vivo)
T5 sequence (O08532 25-1103 R241A): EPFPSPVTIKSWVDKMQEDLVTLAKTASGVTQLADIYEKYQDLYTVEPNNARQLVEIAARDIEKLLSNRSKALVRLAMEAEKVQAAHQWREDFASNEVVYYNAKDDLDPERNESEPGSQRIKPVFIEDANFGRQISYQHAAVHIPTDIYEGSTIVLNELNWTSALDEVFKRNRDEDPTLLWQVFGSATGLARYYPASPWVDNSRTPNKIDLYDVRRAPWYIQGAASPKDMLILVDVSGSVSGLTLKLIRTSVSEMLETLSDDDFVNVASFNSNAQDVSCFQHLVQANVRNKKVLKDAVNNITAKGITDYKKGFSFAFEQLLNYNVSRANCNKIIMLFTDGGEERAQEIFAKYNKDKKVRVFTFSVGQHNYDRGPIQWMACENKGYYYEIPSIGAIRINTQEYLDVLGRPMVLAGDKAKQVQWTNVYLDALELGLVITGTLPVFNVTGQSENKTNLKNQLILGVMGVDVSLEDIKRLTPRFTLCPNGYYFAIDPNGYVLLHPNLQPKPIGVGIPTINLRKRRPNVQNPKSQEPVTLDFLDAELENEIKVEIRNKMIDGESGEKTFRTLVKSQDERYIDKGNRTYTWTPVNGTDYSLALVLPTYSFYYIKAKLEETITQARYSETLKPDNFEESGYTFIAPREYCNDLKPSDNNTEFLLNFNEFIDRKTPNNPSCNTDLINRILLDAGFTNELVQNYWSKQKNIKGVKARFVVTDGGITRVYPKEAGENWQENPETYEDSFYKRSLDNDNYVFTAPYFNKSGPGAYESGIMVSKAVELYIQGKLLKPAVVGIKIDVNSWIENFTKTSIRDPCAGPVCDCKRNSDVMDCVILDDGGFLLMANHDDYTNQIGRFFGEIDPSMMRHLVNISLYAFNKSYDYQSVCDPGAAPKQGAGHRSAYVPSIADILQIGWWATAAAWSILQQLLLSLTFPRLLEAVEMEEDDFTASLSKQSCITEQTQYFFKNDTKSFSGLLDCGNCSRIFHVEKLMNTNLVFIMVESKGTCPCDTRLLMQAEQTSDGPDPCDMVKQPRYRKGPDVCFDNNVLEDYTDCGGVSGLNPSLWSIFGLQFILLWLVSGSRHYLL
T5 sequence (O08532 958-1103 partner limits assumed): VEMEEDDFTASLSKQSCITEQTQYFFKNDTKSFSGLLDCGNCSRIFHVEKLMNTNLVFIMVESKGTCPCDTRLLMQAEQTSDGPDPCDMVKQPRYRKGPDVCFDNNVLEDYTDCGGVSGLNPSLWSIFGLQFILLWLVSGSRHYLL

[11] = SPR binding of NVA1309 to immobilized P4-derived peptides, RU400 as % of peptide P4; details: for % BINDING (RU400) 0.5 mM: NVA1309 0.5 mM; for % BINDING (RU400) 1 mM: NVA1309 1 mM; for % BINDING (RU400) 2 mM: NVA1309 2 mM; for NVA1309 binding to the peptide, in words: compared with peptide P4; for % BINDING (RU400) mean: mean of 0.5, 1 and 2 mM NVA1309
Protocol: This peptide was covalently coupled via the carboxy-terminal cysteine to the surface (FC2) of a Biacore CM5 optical sensor chip as described in Example 4 following the Biacore thiol coupling procedure. Compound NVA1309 was injected as analyte at increasing concentrations and the binding reaction was monitored by generation of real time sensorgrams, presented as subtracted curves from the blank FC1 dextran reference surface (FIGS. 14A & 14B).
Sensorgram running conditions were: • Compound stock solution: 50 mM, Dimethyl sulfoxide (DMSO) • Compound working dilution: 0.5-2 mM • Running buffer: HBS-P • Flow rate: 30 μl/min
This peptide was covalently coupled via the carboxy-terminal cysteine to the surface (FC3) of a new Biacore CM5 optical sensor chip using the Biacore thiol coupling procedure. Peptide P4 was immobilized on FC2 as a positive reference control, flow cell FC1 was left blank as negative background binding reference. Compound NVA1309 was injected as analyte at increasing concentrations and the binding reaction was monitored by generation of real time sensorgrams as described in the previous examples and presented as subtracted curves from the blank FC1 dextran reference surface.
A series of three concentration SPR binding experiments were carried out with peptides derived from the peptide P4 sequence (SEQ ID No. 7). These peptides were designed in order to determine the significance of single peptide 4-contained (P4) amino acid residues in binding compound NVA1309. The following peptides were prepared:
Synthetic peptides were covalently coupled to optical sensor chips via the terminal cysteines following the Biacore thiol coupling procedure and SPR binding experiments were run exactly under the same conditions as described in the previous examples. Relative binding strengths of the single peptides were read from three concentration RU400 values and calculated as percentage binding of the peptide P4 reference (P4: RU400=100%). […]

[12] = P4 RU400=100%, P4 scanning (Example 6)

T1 sequence (P54289 528-668): as the sequence (P54289 528-668) above

| Compound | % BINDING (RU400) 0.5 mM [11, 12] | % BINDING (RU400) 1 mM [11, 12] | % BINDING (RU400) 2 mM [11, 12] | % BINDING (RU400) mean ([11]; P4=100%, Example 6) | % BINDING (RU400) 0.5 mM ([11]; P4=100%, Example 7) | % BINDING (RU400) 1 mM ([11]; P4=100%, Example 7) | % BINDING (RU400) 2 mM ([11]; P4=100%, Example 7) | % BINDING (RU400) mean ([11]; P4=100%, Example 7) | also measured |
| --- | --- | --- | --- | --- | --- | --- | --- | --- | --- |
| CCC1=C[C@@H]2[C@H](C1)C[C@]2(CN)Cc1nnn[nH]1 [NVA1309, [(1R,5S,6S)-3-Ethyl-6-(1H-tetrazol-5-ylmethyl)-6-bicyclo[3.2.0]hept-3-enyl]methanamine] | – | – | – | – | – | – | – | – | pKd [1]: 7.47; kon ([1]; read-out: ka): 18000 M⁻¹ s⁻¹; SPR binding to immobilized α2δ-1 recombinant peptide [2]: concentration-dependent binding; SPR binding to immobilized peptide P3 [3]: concentration dependent binding; SPR binding to immobilized construct 2 [4]: concentration-dependent binding; SPR binding to immobilized construct 1 [5]: concentration-dependent binding; SPR binding to immobilized peptide P1 [6]: concentration-dependent binding; kd [7]: 0.00061 s⁻¹; pIC50 ([8]; recombinant membranes over-expressing the human α2δ-1 subunit (PCT/EP2014/077937); read-out: IC50 of binding; cited from earlier work): 8.68 |
| CC(C)C[C@H](CN)CC(=O)O [Pregabalin, reference compound] | – | – | – | – | – | – | – | – | ability to alleviate mechanical hypersensitivity [9]: lost; SPR binding to immobilized construct 2 [4]: lack of pregabalin binding; SPR binding to immobilized construct 1 [5]: lack of pregabalin binding; SPR binding to immobilized peptide P1 [6]: no positive SPR signal; alleviating chronic pain resulting from nerve injury [10]: no longer effective; pIC50 ([8]; read-out: IC50 of binding; recombinant membranes over-expressing the human α2δ-1 subunit (PCT/EP2014/077937); cited from earlier work): 7.64 |
| AQTITEELKAKIGGGC (Peptide P8, Inverse peptide P4 + GGGC anchor) | 3% | 2% | 2% | 2.3% | – | – | – | – | NVA1309 binding to the peptide, in words [11]: lack of binding |
| ETITQARYSETLKPGGGC (Peptide P6, carboxy-terminal VGGC_a2 region (IV) + GGGC anchor) [C-terminal P4 extension + GGGC anchor] | 9% | 7% | 9% | 8.3% | – | – | – | – | NVA1309 binding to the peptide, in words [11]: significant loss of NVA1309 binding capacity |
| IAAALEETITQAGGGC (Peptide P10, P4 analogue - positively charged side chains A-substituted + GGGC anchor) | 4% | 4% | 4% | 4% | – | – | – | – | – |
| IAAKLEETITQAGGGC (Peptide P13, P4 analogue with Lysine in position 2 (K) substituted by Alanine (A) + GGGC anchor) [P4 analogue, K2 A-substituted + GGGC anchor] | – | – | – | – | 133% | 88% | 90% | 104% | – |
| IKAALEETITQAGGGC (Peptide P14, P4 analogue with Lysine in position 4 (K) substituted by Alanine (A) + GGGC anchor) [P4 analogue, K4 A-substituted + GGGC anchor] | – | – | – | – | 0% | 11% | 6% | 6% | – |
| IKAKGGGC (Peptide P15, P4 analogue containing only the amino-terminal part of P4 + GGGC anchor) | – | – | – | – | 19% | 25% | 26% | 23% | – |
| IKAKLAATITQAGGGC (Peptide P11, P4 analogue - negatively charged side chains A-substituted + GGGC anchor) | 23% | 22% | 25% | 23.3% | – | – | – | – | – |
| IKAKLEEAIAQAGGGC (Peptide P12, P4 analogue - polar side chains A-substituted + GGGC anchor) | 14% | 15% | 17% | 15.3% | – | – | – | – | – |
| IKAKLEETITQAGGGC (Peptide P4, carboxy-terminal VGGC_a2 region (II) + GGGC anchor) [carboxy-terminal VGGC_α2 region (II) + GGGC anchor, positive control] | 100% | 100% | 100% | 100% | 100% | 100% | 100% | 100% | – |
| LRVRIDDSLSNVGGGC (Peptide P9, P4 analogue - all aa substituted by most similar ones + GGGC anchor) | 1% | 1% | 2% | 1.3% | – | – | – | – | – |
